Results on 11 compounds are retold here after ChEMBL document CHEMBL1201862, “PubChem BioAssay data set” (2004).

What all share (assay): inhibition of tumour cell growth, NCI panel, 48 h
The test system of assay [1] is MDA-MB-435.
Assay [2] has as its system A498.
In assay [3] the test system is UACC-257.
Assay [4] deals with HT-29.
The test system of assay [5] is NCI-H23.
The subject of assay [6] is IGROV-1.
Assay [7] has as its system Malme-3M.
The test system of assay [8] is SK-MEL-2.
For assay [9], the system named is HCC 2998.
Assay [10] deals with UO-31.
For assay [11], the system named is OVCAR-5.
Assay [12] concerns RPMI-8226.
The subject of assay [13] is A549.
Assay [14] relates to HCT-15.
In assay [15] the test system is NCI/ADR-RES.
Assay [16] has as its system LOX IMVI.
In assay [17] the test system is MDA-MB-231.
In assay [18] the test system is NCI-H460.
Assay [19] has as its system SF-295.

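Method: 48-hour compound exposure of cells in 96-well plates, five concentrations, linear interpolation of endpoints. GI50 marks 50% less growth.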 Activity calls are given as the source filed them. No stated cut-off is given here; in the data, active = GI50 up to about 1.1 µM and inactive = higher.

As for `CC(=O)Nc1ccc(S(=O)(=O)N=S(C)C)cc1`, the GI50 in [1], in [2], in assay [3], in [4], in [5] and in assay [6] was > 100 µM (inactive) in each case. Besides, the GI50 in [7], in assay [8], in assay [9], in assay [10], in assay [11] and in [12] was > 100 µM (inactive) in each case. Moreover, the GI50 in assay [13] was > 100 µM (inactive); in [14], above 100 µM; in assay [15] it was > 100 µM (inactive); in [16], > 100 µM (inactive); in assay [17] it was > 100 µM (inactive); in assay [18], > 100 µM (inactive). For the same compound, the GI50 in assay [19] was > 100 µM (inactive).

`O=C(O[C@H](/C=C/c1ccccc1)P1(=O)N(Cc2ccccc2)[C@H]2CCCC[C@@H]2N1Cc1ccccc1)c1ccccc1`: the GI50 in [1] is 3.05 µM (inactive); in [2] it was 7.48 µM (inactive); in [3], 9.84 µM (inactive); in assay [4], 3.8 µM (inactive); in assay [5] it was 3.51 µM (inactive); in [6] it was 3.21 µM (inactive). The GI50 in [7] was 2.89 µM (inactive); in assay [8], 2.39 µM (inactive); in assay [9], 8.18 µM (inactive); in [10], 4.61 µM (inactive); in assay [11], 4.94 µM (inactive); in assay [12], 3.42 µM (inactive). Moreover, the GI50 was 3.7 µM (inactive) in assay [13]; 3.22 µM in [14]; 3.05 µM (inactive) in assay [15]; 3.32 µM (inactive) in assay [16]; 3.49 µM (inactive) in [17]; 3.72 µM (inactive) in [18]. The GI50 in [19] was 3.74 µM (inactive).

As for `Cc1ccc(N2CN3OC(=O)N(c4ccccc4)[C@@]3(c3ccccc3)C2)cc1`, the GI50 was 26.4 µM (inactive) in [1]; 32.1 µM (inactive) in [2]; 26.6 µM (inactive) in [3]; 25.1 µM (inactive) in assay [4]; 24.2 µM (inactive) in [5]; 33 µM (inactive) in assay [6]. Further, the GI50 in assay [7] was 34 µM (inactive); in assay [8] it was 19.9 µM (inactive); in assay [9], 24.9 µM (inactive); in [10], 57.4 µM (inactive); in assay [11] it was > 100 µM (inactive); in assay [12], 45.6 µM (inactive). The GI50 in assay [13] is 36.5 µM (inactive); in assay [14], 23.2 µM; in [15] it was 29 µM (inactive); in assay [16] it was 37.5 µM (inactive); in assay [17], 26.9 µM (inactive); in [18] it was 21.6 µM (inactive). Also, the GI50 in assay [19] is 17.5 µM (inactive).

On to `O=C(CCCl)NN=C1NCCCN1`, for which the GI50 in assay [1], in assay [2], in [3], in [4], in assay [5] and in [6] was > 100 µM (inactive) each time. Further, the GI50 in [7], in assay [8], in assay [9], in [10], in assay [11] and in [12] was > 100 µM (inactive) throughout. The GI50 in assay [13] is > 100 µM (inactive); in assay [14], above 100 µM; in [15], > 100 µM (inactive); in assay [16], > 100 µM (inactive); in assay [17], > 100 µM (inactive); in assay [18], > 100 µM (inactive). For the same compound, the GI50 in [19] is > 100 µM (inactive).

Take `N#CC(C#N)=C1C(C#N)=C(N)NC12OCCO2`: the GI50 in assay [1], in assay [2], in [3], in assay [4], in [5] and in assay [6] was > 100 µM (inactive) throughout. In addition, the GI50 in [7], in assay [8], in assay [9], in assay [10], in assay [11] and in [12] was > 100 µM (inactive) in each case. For the same compound, the GI50 in assay [13] was > 100 µM (inactive); in [14], above 100 µM; in [15], > 100 µM (inactive); in assay [16], > 100 µM (inactive); in assay [17] it was > 100 µM (inactive); in assay [18] it was > 100 µM (inactive). In addition, in assay [19], the GI50 was > 100 µM (inactive).

`O=C1C(=O)c2c(oc(=O)c3ccccc23)-c2ccccc21`: the GI50 in assay [1] is 6.75 µM (inactive); in [2], > 25 µM (inactive); in assay [3] it was > 25 µM (inactive); in assay [4] it was 17.5 µM (inactive); in [5], 18 µM (inactive); in assay [6] it was > 25 µM (inactive). The GI50 in assay [7] is 8.93 µM (inactive); in assay [8], > 25 µM (inactive); in assay [9] it was 13.9 µM (inactive); in assay [10], > 25 µM (inactive); in [11], > 25 µM (inactive); in [12] it was 19.3 µM (inactive). Further, the GI50 in assay [13] was > 25 µM (inactive); in assay [14], 17.6 µM; in [15] it was 22.9 µM (inactive); in assay [16], 16.9 µM (inactive); in assay [17], > 25 µM (inactive); in assay [18], > 25 µM (inactive). Moreover, in assay [19], the GI50 was > 25 µM (inactive).

Regarding `COC(=O)CCc1cc(O)c2c(c1)C(C(=O)OC)C(c1ccc(O)c(O)c1)O2` (centres undefined), the GI50 in [1] was 1.48 µM (inactive); in [2], > 44.9 µM (inactive); in [3], > 48.2 µM (inactive); in assay [4], 27.2 µM (inactive); in assay [5], 26.6 µM (inactive); in [6], 12.1 µM (inactive). The GI50 is 6.97 µM (inactive) in assay [7]; 3.39 µM (inactive) in assay [8]; 5.02 µM (inactive) in assay [9]; 26.2 µM (inactive) in assay [10]; > 65.5 µM (inactive) in [11]; 22 µM (inactive) in [12]. Besides, the GI50 in [13] is 43.4 µM (inactive); in [14], 4.36 µM; in assay [15], 42.3 µM (inactive); in assay [16] it was 8.04 µM (inactive); in [17] it was 11.7 µM (inactive); in assay [18] it was 22.9 µM (inactive). The GI50 in assay [19] is 17.7 µM (inactive).

Consider `COc1ccc2cc(CNCCCCCCNCc3ccc4cc(OC)ccc4c3)ccc2c1`, for which the GI50 in assay [1] is 0.204 µM (active); in assay [2], 1.58 µM (inactive); in [3] it was 1.83 µM (inactive); in assay [4], 0.186 µM (active); in assay [5] it was 2.11 µM (inactive); in assay [6], 1.57 µM (inactive). The GI50 in assay [7] was 1.05 µM (active); in [8] it was 1.24 µM (inactive); in assay [9], 0.132 µM (active); in assay [10], 1.63 µM (inactive); in assay [11], 0.885 µM (active); in [12], 0.208 µM (active). For the same compound, the GI50 in assay [13] was 1.86 µM (inactive); in [14] it was 0.406 µM; in [15], 1.44 µM (inactive); in assay [16], 0.181 µM (active); in assay [17], 0.465 µM (active); in assay [18], 0.255 µM (active). Further, the GI50 in assay [19] was 0.486 µM (active).

Turning to `CCCC(=O)Oc1c2ccsc2c(OC(=O)CCC)c2ccsc12`, the GI50 was 0.305 µM (active) in assay [1]; 4.6 µM (inactive) in assay [2]; 0.92 µM (active) in assay [3]; 5.35 µM (inactive) in assay [4]; 0.74 µM (active) in [5]; 4.18 µM (inactive) in [6]. Also, the GI50 in assay [7] was 0.359 µM (active); in [8], 1.09 µM (active); in assay [9], 4.14 µM (inactive); in assay [10] it was 2.53 µM (inactive); in assay [11], 2.76 µM (inactive); in [12] it was 1.41 µM (inactive). Besides, the GI50 in assay [13] was 3.94 µM (inactive); in assay [14], 1.21 µM; in [15], 1.04 µM (active); in assay [16], 0.594 µM (active); in [17], 1.49 µM (inactive); in assay [18] it was 1.05 µM (active). The GI50 in [19] is 0.457 µM (active).

On to `CC12Nc3c(Cl)cc(Cl)cc3N1C(=O)c1ccccc12` (centres undefined), for which the GI50 in assay [1] is > 100 µM (inactive); in assay [2], 18.5 µM (inactive); in assay [3] it was > 100 µM (inactive); in assay [4], > 100 µM (inactive); in assay [5], > 100 µM (inactive); in [6] it was 92.3 µM (inactive). The GI50 in [7] is > 100 µM (inactive); in assay [8], > 100 µM (inactive); in assay [9], > 100 µM (inactive); in assay [10] it was 52.7 µM (inactive); in assay [11], > 100 µM (inactive); in assay [12], > 100 µM (inactive). Further, the GI50 is > 100 µM (inactive) in [13]; above 100 µM in assay [14]; 91.8 µM (inactive) in assay [15]; 96.6 µM (inactive) in assay [16]; > 100 µM (inactive) in [17]; 95.5 µM (inactive) in assay [18]. The GI50 in assay [19] was > 100 µM (inactive).

For `CC(C)=CCC/C(C)=C/CC/C(C)=C/CC(CO)N(C)CC/C=C(\C)CCC=C(C)C` (centres undefined), the GI50 was 3.93 µM (inactive) in assay [1]; 14.9 µM (inactive) in assay [2]; 5.2 µM (inactive) in assay [3]; 3.5 µM (inactive) in [4]; 7.96 µM (inactive) in assay [5]; 3.1 µM (inactive) in [6]. Further, the GI50 in assay [7] was 2.99 µM (inactive); in [8] it was 14.3 µM (inactive); in assay [9], 3.04 µM (inactive); in [10], 4.65 µM (inactive); in assay [11] it was 7.13 µM (inactive); in [12] it was 3.09 µM (inactive). Moreover, the GI50 in assay [13] was 4.93 µM (inactive); in assay [14], 3.78 µM; in assay [15] it was 4.62 µM (inactive); in assay [16], 2.92 µM (inactive); in assay [17], 9.86 µM (inactive); in assay [18] it was 3.48 µM (inactive). In addition, the GI50 in [19] is 7.1 µM (inactive).
